Assay results from ChEMBL document CHEMBL5113482, “Discovery of fused benzimidazole-imidazole autophagic flux inhibitors for treatment of triple-negative breast cancer” (Eur J Med Chem, 2022).
Calls of active or inactive are those of the source. The calls are words filed in the database; no cut-off is given here.

Legend:
U-251 = assay: Antiproliferative activity against human U-251 cells assessed as cell growth inhibition measured after 48 hrs by MTT assay; format: functional, cell-based; details: U-251, 48 h
SW-620 = assay: Antiproliferative activity against human SW-620 cells assessed as cell growth inhibition measured after 48 hrs by MTT assay; format: functional, cell-based; details: SW-620, 48 h
MDA-MB-468 [1] = assay: Inhibition of autophagy in human MDA-MB-468 cells assessed as increase in p62 expression at 5 to 20 uM measured after 48 hrs by Western blot analysis; format: functional, cell-based; details: dose 5-20 µM, DDE = dose-dependent effect
MDA-MB-468 [2] = assay: Inhibition of autophagic flux in human MDA-MB-468 cells assessed as increase in cytoplasmic p62 expression measured after 48 hrs by Western blot analysis; format: functional, cell-based; details: dose 5-20 µM, DDE = dose-dependent effect
MDA-MB-231 [3] = assay: Induction of apoptosis in human MDA-MB-231 cells assessed as increase in late apoptotic cells measured after 48 hrs by Annexin V-FITC/propidium iodide staining based flow cytometry; format: functional, cell-based; details: dose 5-20 µM, DDE = dose-dependent effect
MDA-MB-231 [4] = assay: Induction of apoptosis in human MDA-MB-231 cells assessed as increase in cytochrome c expression measured after 48 hrs by Western blot analysis; format: functional, cell-based; details: dose 5-20 µM, DDE = dose-dependent effect
MDA-MB-231 [5] = assay: Induction of apoptosis in human MDA-MB-231 cells assessed as increase in Bak expression measured after 48 hrs by Western blot analysis; format: functional, cell-based; details: dose 5-20 µM, DDE = dose-dependent effect
MDA-MB-468 [6] = assay: Inhibition of autophagic flux in human MDA-MB-468 cells assessed as increase in nuclear p62 expression measured after 48 hrs by immunofluorescence analysis; format: functional, cell-based; details: dose 5-20 µM, DDE = dose-dependent effect
SCC-25 = assay: Antiproliferative activity against human SCC-25 cells assessed as cell growth inhibition measured after 48 hrs by MTT assay; format: functional, cell-based; details: SCC-25, 48 h
MDA-MB-468 [7] = assay: Cell cycle arrest in human MDA-MB-468 cells assessed as increase in CHK2 phosphorylation at Thr 68 residue measured after 48 hrs by Western blot analysis; format: functional, cell-based; details: dose 5-20 µM, DDE = dose-dependent effect
PANC-1 = assay: Antiproliferative activity against human PANC cells assessed as cell growth inhibition measured after 48 hrs by MTT assay; format: functional, cell-based; details: PANC-1, 48 h
MDA-MB-231 [8] = assay: Inhibition of autophagic flux in human MDA-MB-231 cells assessed as increase in nuclear p62 expression measured after 48 hrs by Western blot analysis; format: functional, cell-based; details: dose 5-20 µM, DDE = dose-dependent effect
MDA-MB-468 [9] = assay: Antiproliferative activity against human MDA-MB-468 cells assessed as reduction in cell count by microscopy; format: functional, cell-based
MDA-MB-231 [10] = assay: Antitumor activity against human MDA-MB-231 cells xenografted in NOD/SCID mouse assessed as reduction in cell count at 5 to 15 mg/kg, ip administered at 3 days interval for 24 days and measured on day 25 by H and E staining based assay; format: functional, organism-based; details: dose 5-15 mg/kg, time 25.0 day
MDA-MB-231 [11] = assay: Cell cycle arrest in human MDA-MB-231 cells assessed as increase in p21 expression measured after 48 hrs by Western blot analysis; format: functional, cell-based; details: dose 5-20 µM, DDE = dose-dependent effect
MDA-MB-468 [12] = assay: Inhibition of autophagy in human MDA-MB-468 cells assessed as increase in LC3B-II expression measured after 48 hrs by immunofluorescence analysis; format: functional, cell-based; details: dose 5-20 µM
LN-229 = assay: Antiproliferative activity against human LN-229 cells assessed as cell growth inhibition measured after 48 hrs by MTT assay; format: functional, cell-based; details: LN-229, 48 h
MDA-MB-231 [13] = assay: Inhibition of autophagic flux in human MDA-MB-231 cells assessed as reduction in RNF8 expression at 5 to 20 uM measured after 6 to 48 hrs by Western blot analysis; format: functional, cell-based; details: dose 5-20 µM, time 6-48 hrs
MDA-MB-231 [14] = assay: Antiproliferative activity against human MDA-MB-231 cells assessed as reduction in cell count by microscopy; format: functional, cell-based
MDA-MB-231 [15] = assay: Inhibition of autophagic flux in human MDA-MB-231 cells assessed as reduction in polyubiquitinated H2A expression measured after 48 hrs by Western blot analysis; format: functional, cell-based
MDA-MB-468 [16] = assay: Cell cycle arrest in human MDA-MB-468 cells assessed as reduction in cyclin B expression measured after 48 hrs by Western blot analysis; format: functional, cell-based; details: dose 5-20 µM, DDE = dose-dependent effect
PC-3 = assay: Antiproliferative activity against human PC-3 cells assessed as cell growth inhibition measured after 48 hrs by MTT assay; format: functional, cell-based; details: PC-3, 48 h
MDA-MB-468 [17] = assay: Inhibition of autophagic flux in human MDA-MB-468 cells assessed as increase in nuclear p62 expression measured after 48 hrs by Western blot analysis; format: functional, cell-based; details: dose 5-20 µM, DDE = dose-dependent effect
MDA-MB-231 [18] = assay: Antitumor activity against human MDA-MB-231 cells xenografted in NOD/SCID mouse assessed as reduction in tumor size at 5 to 15 mg/kg, ip administered at 3 days interval for 24 days and measured on day 25; format: functional, organism-based; details: dose 5-15 mg/kg, time 25.0 day
HeLa = assay: Inhibition of autophagic flux in human HeLa cells expressing mRFP-EGFP-LC3B assessed as blockage of autophagosome-lysosome fusion by measuring accumulation of yellow fluorescent vesicles; format: functional, cell-based
MDA-MB-468 [19] = assay: Inhibition of autophagic flux in human MDA-MB-468 cells assessed as reduction in RNF8 expression at 5 to 20 uM measured after 6 to 48 hrs by Western blot analysis; format: functional, cell-based; details: dose 5-20 µM, time 6-48 hrs
MDA-MB-468 [20] = assay: Antiproliferative activity against human MDA-MB-468 cells assessed as cell growth inhibition measured after 48 hrs by MTT assay; format: functional, cell-based; details: MDA-MB-468, 48 h
MDA-MB-231 [21] = assay: Cell cycle arrest in human MDA-MB-231 cells assessed as increase in CHK1 phosphorylation at Ser 345 residue measured after 48 hrs by Western blot analysis; format: functional, cell-based; details: dose 5-20 µM, DDE = dose-dependent effect
MDA-MB-231 [22] = assay: Cell cycle arrest in human MDA-MB-231 cells assessed as reduction in CDK2 expression measured after 48 hrs by Western blot analysis; format: functional, cell-based; details: dose 5-20 µM, DDE = dose-dependent effect
[23] = molecular target: Serine-protein kinase ATM (Homo sapiens) (UniProt Q13315); assay: Activation of ATM phosphorylation in human MDA-MB-468 cells at 5 to 20 uM measured after 6 to 48 hrs by Western blot analysis; format: cell-based; details: filed as activator, dose 5-20 µM, time 6-48 hrs
HSC-3 = assay: Antiproliferative activity against human HSC-3 cells assessed as cell growth inhibition measured after 48 hrs by MTT assay; format: functional, cell-based; details: HSC-3, 48 h
MDA-MB-231 [24] = assay: Induction of apoptosis in human MDA-MB-231 cells assessed as increase in Bax expression measured after 48 hrs by Western blot analysis; format: functional, cell-based; details: dose 5-20 µM, DDE = dose-dependent effect
MDA-MB-231 [25] = assay: Antitumor activity against human MDA-MB-231 cells xenografted in ip dosed NOD/SCID mouse assessed as upregulation of gamma-H2AX expression administered at 3 days interval for 24 days and measured on day 25 by Western blot analysis; format: functional, organism-based; details: dose 5-15 mg/kg, time 25.0 day, DDE = dose-dependent effect
MDA-MB-468 [26] = assay: Cell cycle arrest in human MDA-MB-468 cells assessed as increase in CHK1 phosphorylation at Ser 345 residue measured after 48 hrs by Western blot analysis; format: functional, cell-based; details: dose 5-20 µM, DDE = dose-dependent effect
MDA-MB-231 [27] = assay: Induction of apoptosis in human MDA-MB-231 cells assessed as increase in cleaved caspase-3 expression measured after 48 hrs by Western blot analysis; format: functional, cell-based; details: dose 5-20 µM, DDE = dose-dependent effect
MDA-MB-231 [28] = assay: Inhibition of autophagic flux in human MDA-MB-231 cells assessed as increase in cytoplasmic p62 expression measured after 48 hrs by Western blot analysis; format: functional, cell-based; details: dose 5-20 µM, DDE = dose-dependent effect

Sequence of Serine-protein kinase ATM (Homo sapiens) (Q13315 whole entry): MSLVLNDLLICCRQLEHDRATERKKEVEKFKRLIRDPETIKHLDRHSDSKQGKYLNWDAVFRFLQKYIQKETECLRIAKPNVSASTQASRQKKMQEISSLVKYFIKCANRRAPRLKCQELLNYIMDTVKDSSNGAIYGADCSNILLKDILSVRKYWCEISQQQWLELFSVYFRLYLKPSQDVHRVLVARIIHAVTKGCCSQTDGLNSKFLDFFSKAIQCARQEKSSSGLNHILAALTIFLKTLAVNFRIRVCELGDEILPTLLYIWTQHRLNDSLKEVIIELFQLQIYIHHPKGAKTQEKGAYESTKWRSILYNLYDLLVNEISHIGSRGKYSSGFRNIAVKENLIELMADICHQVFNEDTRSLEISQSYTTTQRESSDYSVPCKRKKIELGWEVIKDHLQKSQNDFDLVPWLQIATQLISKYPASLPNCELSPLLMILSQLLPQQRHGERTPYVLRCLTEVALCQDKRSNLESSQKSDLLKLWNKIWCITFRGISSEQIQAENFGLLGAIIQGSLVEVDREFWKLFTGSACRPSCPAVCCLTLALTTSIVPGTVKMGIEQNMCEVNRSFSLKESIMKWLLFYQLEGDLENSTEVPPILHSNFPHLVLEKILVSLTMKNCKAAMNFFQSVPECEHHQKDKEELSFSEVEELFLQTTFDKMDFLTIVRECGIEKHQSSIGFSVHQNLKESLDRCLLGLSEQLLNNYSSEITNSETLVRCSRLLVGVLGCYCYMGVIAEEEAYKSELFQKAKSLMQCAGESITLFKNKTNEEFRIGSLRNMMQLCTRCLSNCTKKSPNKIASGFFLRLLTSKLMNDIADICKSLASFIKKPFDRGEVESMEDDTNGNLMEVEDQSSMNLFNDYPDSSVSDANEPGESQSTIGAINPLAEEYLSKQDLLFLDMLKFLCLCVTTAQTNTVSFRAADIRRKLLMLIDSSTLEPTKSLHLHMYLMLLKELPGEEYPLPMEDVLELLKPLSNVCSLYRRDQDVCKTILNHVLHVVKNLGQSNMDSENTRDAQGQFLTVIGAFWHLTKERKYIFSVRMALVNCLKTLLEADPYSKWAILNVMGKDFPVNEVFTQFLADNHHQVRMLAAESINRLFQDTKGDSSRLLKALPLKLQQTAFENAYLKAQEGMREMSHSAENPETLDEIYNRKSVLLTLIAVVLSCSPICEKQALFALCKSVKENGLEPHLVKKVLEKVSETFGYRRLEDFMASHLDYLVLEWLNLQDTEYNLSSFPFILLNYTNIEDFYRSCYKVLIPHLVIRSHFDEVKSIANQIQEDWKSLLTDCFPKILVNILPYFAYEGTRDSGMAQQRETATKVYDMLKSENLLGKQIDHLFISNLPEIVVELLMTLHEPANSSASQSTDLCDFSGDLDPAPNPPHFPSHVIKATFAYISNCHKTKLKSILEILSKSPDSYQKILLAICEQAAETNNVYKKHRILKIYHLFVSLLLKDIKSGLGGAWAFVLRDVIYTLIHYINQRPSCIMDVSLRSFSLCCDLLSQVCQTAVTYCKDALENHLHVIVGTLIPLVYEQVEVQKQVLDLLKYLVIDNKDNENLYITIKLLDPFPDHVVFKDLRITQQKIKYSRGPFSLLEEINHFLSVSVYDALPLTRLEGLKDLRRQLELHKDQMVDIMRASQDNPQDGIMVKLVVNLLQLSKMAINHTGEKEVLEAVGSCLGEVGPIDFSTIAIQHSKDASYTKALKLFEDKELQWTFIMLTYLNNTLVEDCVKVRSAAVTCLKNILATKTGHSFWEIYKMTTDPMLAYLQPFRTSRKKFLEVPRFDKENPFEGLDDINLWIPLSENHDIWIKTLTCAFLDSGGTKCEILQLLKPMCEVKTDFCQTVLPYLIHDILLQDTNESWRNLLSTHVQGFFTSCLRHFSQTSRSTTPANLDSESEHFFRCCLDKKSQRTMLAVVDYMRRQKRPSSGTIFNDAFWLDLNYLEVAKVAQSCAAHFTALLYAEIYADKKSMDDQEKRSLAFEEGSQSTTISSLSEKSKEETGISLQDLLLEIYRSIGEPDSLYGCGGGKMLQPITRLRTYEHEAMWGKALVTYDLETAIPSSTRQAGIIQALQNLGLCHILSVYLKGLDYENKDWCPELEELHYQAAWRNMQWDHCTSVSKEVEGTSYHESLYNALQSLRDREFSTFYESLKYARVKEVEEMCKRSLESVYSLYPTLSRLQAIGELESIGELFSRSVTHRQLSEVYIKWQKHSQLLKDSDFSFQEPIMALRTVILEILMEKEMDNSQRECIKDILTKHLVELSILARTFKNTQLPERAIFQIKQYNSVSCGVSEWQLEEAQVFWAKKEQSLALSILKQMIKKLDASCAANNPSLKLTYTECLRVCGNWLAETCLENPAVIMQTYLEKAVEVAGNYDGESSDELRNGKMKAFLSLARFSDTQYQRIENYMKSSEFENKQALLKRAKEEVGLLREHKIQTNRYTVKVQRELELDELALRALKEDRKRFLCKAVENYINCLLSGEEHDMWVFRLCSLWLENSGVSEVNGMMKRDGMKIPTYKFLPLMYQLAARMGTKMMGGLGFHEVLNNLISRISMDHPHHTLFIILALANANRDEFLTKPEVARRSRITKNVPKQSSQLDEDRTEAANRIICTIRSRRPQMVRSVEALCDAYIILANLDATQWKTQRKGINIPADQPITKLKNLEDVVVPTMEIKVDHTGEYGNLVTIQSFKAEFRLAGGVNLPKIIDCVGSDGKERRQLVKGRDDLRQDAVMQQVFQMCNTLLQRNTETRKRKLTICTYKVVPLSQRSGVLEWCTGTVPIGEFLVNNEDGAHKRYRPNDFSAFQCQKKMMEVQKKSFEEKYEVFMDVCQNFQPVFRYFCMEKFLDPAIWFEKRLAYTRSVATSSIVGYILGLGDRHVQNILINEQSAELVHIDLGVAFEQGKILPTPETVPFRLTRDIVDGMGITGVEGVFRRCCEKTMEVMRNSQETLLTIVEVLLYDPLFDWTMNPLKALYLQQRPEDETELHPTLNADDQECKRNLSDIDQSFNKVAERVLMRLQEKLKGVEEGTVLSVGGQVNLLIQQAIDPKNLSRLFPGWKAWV

O=C(NC1CCCCC1)c1[nH]cnc1-c1nc2ccccc2[nH]1
IC50 (U-251): 12.9 µM | IC50 (SW-620): 25.4 µM | inhibition (MDA-MB-468 [1]): Dde | inhibition (MDA-MB-468 [2]): Dde | Activity (MDA-MB-231 [3]): Dde | Activity (MDA-MB-231 [4]): Dde | Activity (MDA-MB-231 [5]): Dde | inhibition (MDA-MB-468 [6]): Dde | IC50 (SCC-25): 18.6 µM | Activity (MDA-MB-468 [7]): Dde | IC50 (PANC-1): 19.2 µM | inhibition (MDA-MB-231 [8]): Dde | Activity (MDA-MB-468 [9]): Active | Activity (MDA-MB-231 [10]): Active | Activity (MDA-MB-231 [11]): Dde | inhibition (MDA-MB-468 [12]): Active | IC50 (LN-229): 61.4 µM | inhibition (MDA-MB-231 [13]): Active | Activity (MDA-MB-231 [14]): Active | inhibition (MDA-MB-231 [15]): Active | Activity (MDA-MB-468 [16]): Dde | IC50 (PC-3): 17.5 µM | inhibition (MDA-MB-468 [17]): Dde | Activity (MDA-MB-231 [18]): Active | inhibition (HeLa): Active | inhibition (MDA-MB-468 [19]): Active | IC50 (MDA-MB-468 [20]): 6.03 µM | Activity (MDA-MB-231 [21]): Dde | Activity (MDA-MB-231 [22]): Dde | Activity [23]: Active | IC50 (HSC-3): 24 µM | Activity (MDA-MB-231 [24]): Dde | Activity (MDA-MB-231 [25]): Dde | Activity (MDA-MB-468 [26]): Dde | Activity (MDA-MB-231 [27]): Dde | inhibition (MDA-MB-231 [28]): Dde
